In patent US8969577B2, “Curable composition comprising a thermolatent base” (BASF SE, priority 2008, dated 2015):

Test: Curing of powder coating formulation, conversion of epoxy groups by ATR-IR
Conditions: for Conversion at 5′ 100° C. / Conversion 5′ 100° C.: 5 min 100° C.; for Conversion at 15′ 120° C.: 15 min 120° C.; for Conversion at 5′ 130° C. / Conversion 5′ 130° C.: 5 min 130° C.; for Conversion at 5′ 150° C. / Conversion 5′ 150° C.: 5 min 150° C.; for Conversion 5′ 100° C. / Conversion 5′ 130° C. / Conversion 5′ 150° C. / Conversion 5′ 180° C.: Table 4, amount 1 wt. %; for Conversion 5′ 180° C.: 5 min 180° C.
Method: A powder coating formulation consisting of an acidic functional polyester and an epoxy functional polymer that cures without a catalyst at 200° C. for 20 minutes is used. The solid coating formulation is dissolved at 50% solids in methyl-iso-butyl ketone for ease of application. The curing catalyst is added in varying amounts from 0.5 up to 1.5% by weight, based on solids. The thermolatent compounds are compared with imidazole or compound 1 as a reference base. The formulation is applied at wet thickness 250 μm using a wire bar. The solvent is evaporated at room temperature during 30 minutes, and the coating formulation is cured for given times and at the specified temperature (cf. Tables 2 to 4). The curing progress is evaluated using attenuated total reflection infrared (IR) spectroscopy. The fading of the epoxy-attributable peak at 899-921 cm^−1 in comparison to the stable reference peak at 814-841 cm^−1 is used for the calculation of the conversion of epoxy groups.

| Compound | Conversion at 5′ 100° C. (amount 0.5 wt. %) | Conversion at 15′ 120° C. (amount 0.5 wt. %) | Conversion at 5′ 130° C. (amount 0.5 wt. %) | Conversion at 5′ 150° C. (amount 0.5 wt. %) | Conversion at 5′ 130° C. (amount 1.0 wt. %) | Conversion at 5′ 150° C. (amount 1.0 wt. %) | Conversion at 5′ 130° C. (amount 1.5 wt. %) | Conversion at 5′ 150° C. (amount 1.5 wt. %) | Conversion 5′ 100° C. | Conversion 5′ 130° C. | Conversion 5′ 150° C. | Conversion 5′ 180° C. |
| --- | --- | --- | --- | --- | --- | --- | --- | --- | --- | --- | --- | --- |
| C1=CC2=NCCN2C=C1 [Compound 1, reference compound] | 13% | 98% | – | – | – | – | – | – | – | – | – | – |
| OCCNc1ccccn1 [Compound 2, 2-(pyridine-2-ylamino)ethanol] | – | – | 26% | 97% | – | – | – | – | – | – | – | – |
| CC(C)(C)OC(=O)OCCNc1ccccn1 [Compound 3] | – | – | – | – | 22% | 94% | 23% | 100% | – | – | – | – |
| CCNC(=O)OCCNc1ccccn1 [Compound 7] | – | – | – | – | 14% | 95% | 29% | 93% | – | – | – | – |
| CN(C)CCCNc1ccc2ccccc2n1 [Compound 16] | – | – | – | – | – | – | – | – | 0% | 0% | 20% | 100% |
| c1c[nH]cn1 [imidazole, reference compound] | 26% | 100% | 35% | 100% | – | – | – | – | 53% | 74% | 100% | 100% |
